Patent publication US10711007B2, “Selective inhibitors of protein arginine methyltransferase 5 (PRMT5)” (Prelude Therapeutics, Incorporated, priority 2018, dated 2020)

Assays:
PRMT5/MEP50 complex = PRMT5/MEP50 complex (Homo sapiens (Human), UniProt O14744); assay: Biochemical assay: PRMT5/MEP50 methylation of histone H4 based AcH4-23, SPA readout; conditions: PRMT5/MEP50 2.5 nM, 300 nM AcH4-23, 1 μM 3H-SAM
Protocol: Biochemical Assay Protocol
Compounds were solubilized and 3-fold diluted in 100% DMSO. […] Standard reactions were performed in a total volume of 30 μl in assay buffer, with 300 nM histone H4 based AcH4-23 (Anaspec: AS-65002) as substrate. To this was added the PRMT5/MEP50 complex diluted to provide a final assay concentration of 2.5 nM and the compounds were allowed to preincubate for 20 minutes at 37° C. The reaction was initiated by adding S-[3H-methyl]-adenosyl-L-methionine (PerkinElmer: NET155001MC) to final concentration of 1 μM. Following a 30 minutes incubation at 37° C., the reaction was stopped by adding 25 μL of 8M Guanidine HCl. Prepare streptavidin YSI SPA beads (Perkinelmer: RPNQ0012) at 0.3 mg/mL in assay buffer. To each reaction, add 150 μL of SPA beads suspension, and incubated while shaking at room temperature for 30 minutes. The plate was centrifuged at 100×g for 30 second before reading in a scintillation counter. IC50 values were determined by fitting the data to the standard 4 parameters with Hill Slope using GraphPad Prism software.

U-87 MG cells = assay: Cell proliferation assay (CCK-8, day 10) in U-87 MG cells; type: cell-based; conditions: Homo sapiens, 240 h, U-87 MG cell line, read-out: Prolif. IC50
Protocol: Cell Proliferation Assay to Determine IC50 in Granta-519 and U-87 MG Cells
One day before experiment, Granta-519 cells were passaged to a density of 0.5×10^6 cells/ml. U-87 MG cells were trypsinized and 2,000 cells were seeded into 96-well plates and allow to grow overnight. On the day of experiment (day 0), Granta-519 Cells were spun down at 1,500 rpm for 4 min, resuspended in fresh medium to 0.5×10^6 cells/ml and 190 ul of cells were added to 96 well plates. For U-87 MG cells, old medium was removed and replaced with 190 uL fresh medium. Compound working stocks were first diluted at 1:50 with fresh medium in 96 well plate and 10 μL of diluted drugs were added to 96 well plates containing cells and incubated for 3 days. DMSO was used a vehicle control.
One day 3, 50 uL of Granta-519 cells were transferred to a new 96-well plate and 140 uL fresh medium was added. For U-87 MG cells, old medium was removed and replaced with 190 uL fresh medium. Compound working stocks were freshly diluted at 1:50 with medium and 10 μL of diluted drugs were added to cells and grow for 3additional days. The same process was repeated on day 6. Cells were allowed to grow for additional 4 days.
On day 10, 100 uL Granta-519 cells were transferred to a new 96 well plate and 10 μL of Cell Counting Kit-8 (CCK-8, Jojindo, CK04-13) solution was added. For U-87 MG cells, old medium was removed and replaced with 100 uL fresh medium and 10 uL CCK-8 solution was added. Plates were incubated in CO2 incubator for 2 hours (Granta-519 cells) or 30 min (U-87 MG cells) and OD450 values were measured with a microplate reader (iMark microplate reader, Bio-Rad). Percentage of viable cells, relative to DMSO vehicle control, were calculated and plotted in Graphpad Prism ([Inhibitor] vs. normalized response-Variable slope) to determine proliferation IC50 values on day 10.

[1] = tested on: sDMA marks (SmD3me2s) in U-87 MG cells; assay: Western blotting for symmetric di-methyl arginine (sDMA) marks in U-87 MG cells; type: cell-based; conditions: Homo sapiens, 72 h; U-87 MG cell line, 3 days
Protocol: Cell Treatment and Western Blotting for Detecting Symmetric Di-Methyl Arginine (sDMA) Marks
Compound Titration and Cell Culture:
Compounds were dissolved in DMSO to make 10 mM stock and 3-fold series dilutions were further conducted to make working stocks top at 1 mM. Granta-519 cells were maintained in PRMI 1640 (Corning Cellgro, Catalog #: 10-040-CV) supplemented with 10% v/v FBS (GE Healthcare, Catalog #: SH30910.03) and U-87 MG cells were maintained in DMEM (Corning Cellgro, Catalog #: 10-013-CV) with 10% FBS and 2 mM Glutamin (Corning Cellgro, Catalog #25005CV).
To determine enzyme inhibition IC50 values in Granta-519 and U-87 MG cells using Western Blot analysis. One day before experiment, Granta-519 cells were passaged to a density of 0.5×10^6 cells/ml. U-87 MG cells were trypsinized and 4×10^5 cells were seeded into 6-well plates and allow to grow overnight. The next day, Granta-519 cells were spun down at 1,500 rpm for 4 min, resuspend in fresh medium at 0.5×10^6 cells/ml and 3 mL of culture (1.5×10^6 cells) were seeded into 6 well plate. Eight-point, 3-fold serial dilutions of compound working stocks were added to cells (3 ul, 1:1,000 dilution, DMSO concentration was 0.1%; final top concentration at 1 uM) and incubated for 3 days. Cells incubated with DMSO was used as a vehicle control.
Cells were harvested 3 days later, resuspended in 15 uL PBS, lysed in 4% SDS, and homogenized by passing through homogenizer column (Omega Biotek, Catalog #: HCR003). Total protein concentrations were determined by BCA assay (ThermoFisher Scientific, Catalog #: 23225). Lysates were mixed with 5× Laemmli buffer and boiled for 5 min. Forty ug of total protein was separated on SDS-PAGE gels (Bio-Rad, catalog #: 4568083, 4568043), transferred to PVDF membrane, blocked with 5% dry milk (Bio-Rad, Catalog #: 1706404) in TBS with 0.1% v/v Tween 20 (TBST) for 1 hour at room temperature (RT), and incubated with primary antibodies (sDMA: Cell signaling, Catalog #: 13222, 1:3,000; β-Actin: sigma, Catalog #: 1:5,000) in 5% dry milk in TBST at 4° C. overnight. The next day, membranes were washed with TBST, 5×5 min, and incubated with HRP conjugated seconded antibody (GE Healthcare; Catalog #: NA934-1ML, NA931-1ML; 1:5,000) for 2 hours at RT, followed by 5×5 min washes with TBST, and incubation with ECL substrates (Bio-Rad, Catalog #: 1705061, 1705062). Chemiluminescent signal was captured with Fluochem HD2 imager (Proteinsimple). SmD3me2s bands were quantified by ImageJ. Signals were normalized to β-Actin and DMSO control. IC50 values were calculated using Graphpad Prism ([Inhibitor] vs. normalized response-Variable slope).

Chain of PRMT5/MEP50 complex (O14744 whole entry): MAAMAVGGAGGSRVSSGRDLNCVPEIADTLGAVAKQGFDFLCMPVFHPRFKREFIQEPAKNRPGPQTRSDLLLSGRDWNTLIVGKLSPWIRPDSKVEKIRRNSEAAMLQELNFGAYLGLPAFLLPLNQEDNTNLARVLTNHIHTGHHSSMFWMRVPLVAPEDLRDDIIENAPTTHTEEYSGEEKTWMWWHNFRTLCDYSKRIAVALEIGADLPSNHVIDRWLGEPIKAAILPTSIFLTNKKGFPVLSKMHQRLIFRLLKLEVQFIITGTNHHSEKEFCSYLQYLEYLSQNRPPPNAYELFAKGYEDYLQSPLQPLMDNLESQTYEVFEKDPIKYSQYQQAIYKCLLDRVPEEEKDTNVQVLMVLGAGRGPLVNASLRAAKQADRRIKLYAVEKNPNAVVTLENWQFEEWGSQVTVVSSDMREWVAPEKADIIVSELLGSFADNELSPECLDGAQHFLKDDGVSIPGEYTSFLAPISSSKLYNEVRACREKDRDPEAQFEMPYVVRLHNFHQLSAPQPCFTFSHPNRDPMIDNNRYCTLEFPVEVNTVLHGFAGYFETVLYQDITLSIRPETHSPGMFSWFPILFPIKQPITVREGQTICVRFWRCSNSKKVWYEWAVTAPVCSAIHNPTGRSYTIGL
Chain of PRMT5/MEP50 complex (Q9BQA1 whole entry partner): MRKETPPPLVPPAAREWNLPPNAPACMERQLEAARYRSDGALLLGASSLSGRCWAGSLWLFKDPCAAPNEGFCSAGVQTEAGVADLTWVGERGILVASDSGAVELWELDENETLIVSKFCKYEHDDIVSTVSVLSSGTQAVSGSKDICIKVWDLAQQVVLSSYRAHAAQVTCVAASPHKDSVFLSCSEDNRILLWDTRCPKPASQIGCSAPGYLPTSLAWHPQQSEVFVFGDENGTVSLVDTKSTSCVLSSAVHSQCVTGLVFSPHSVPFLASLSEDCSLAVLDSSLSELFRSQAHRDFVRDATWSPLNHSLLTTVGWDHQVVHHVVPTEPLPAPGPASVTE

Cc1ncnc2c1ccn2[C@@H]1O[C@H]([C@@H]2OCCc3c(Cl)cccc32)[C@@H](O)[C@H]1O [Example 75, (2S,3S,4R,5R)-2-((R)-5-chloroisochroman-1-yl)-5-(4-methyl-7H-pyrrolo[2,3-d]pyrimidin-7-yl)tetrahydrofuran-3,4-diol]
IC50 (PRMT5/MEP50 complex): 15.1 nM
IC50 (U-87 MG cells): 339 nM

Nc1ncnc2c1ccn2[C@@H]1O[C@H]([C@@H]2OCCc3cc(F)c(F)cc32)[C@@H](O)[C@H]1O [Example 73, (2R,3R,4S,5S)-2-(4-amino-7H-pyrrolo[2,3-d]pyrimidin-7-yl)-5-((R)-6,7-difluoroisochroman-1-yl)tetrahydrofuran-3,4-diol]
IC50 (PRMT5/MEP50 complex): 1.45 nM
IC50 (U-87 MG cells): 9.1 nM

Nc1ncnc2c1ccn2[C@@H]1O[C@H]([C@@H]2OCCc3cc(Cl)ccc32)[C@@H](O)[C@H]1O [Example 68, (2R,3R,4S,5S)-2-(4-amino-7H-pyrrolo[2,3-d]pyrimidin-7-yl)-5-((R)-6-chloroisochroman-1-yl)tetrahydrofuran-3,4-diol]
IC50 (PRMT5/MEP50 complex): 1.2 nM
IC50 [1]: 2.58 nM
IC50 (U-87 MG cells): 9.1 nM

CNc1ncnc2c1ccn2[C@@H]1O[C@H]([C@@H]2OCCc3cc(Cl)ccc32)[C@@H](O)[C@H]1O [Example 69, (2S,3S,4R,5R)-2-((R)-6-chloroisochroman-1-yl)-5-(4-(methylamino)-7H-pyrrolo[2,3-d]pyrimidin-7-yl)tetrahydrofuran-3,4-diol]
IC50 (PRMT5/MEP50 complex): 14.9 nM
IC50 [1]: 109 nM
IC50 (U-87 MG cells): 181 nM

Cc1ncnc2c1ccn2[C@@H]1O[C@H]([C@@H]2NCCc3cc(Cl)ccc32)[C@@H](O)[C@H]1O [Example 98, (2R,3S,4R,5R)-2-[(1R)-6-chloro-1,2,3,4-tetrahydroisoquinolin-1-yl]-5-(4-methylpyrrolo[2,3-d]pyrimidin-7-yl)tetrahydrofuran-3,4-diol]
IC50 (PRMT5/MEP50 complex): 11.9 nM
IC50 [1]: 579 nM
IC50 (U-87 MG cells): 662 nM

Cc1ncnc2c1ccn2[C@@H]1O[C@H]([C@@H]2OCCc3cc(Cl)ccc32)[C@@H](O)[C@H]1O [Example 22, (2S,3S,4R,5R)-2-((R)-6-chloroisochroman-1-yl)-5-(4-methyl-7H-pyrrolo[2,3-d]pyrimidin-7-yl)tetrahydrofuran-3,4-diol]
IC50 (PRMT5/MEP50 complex): 4.8 nM
IC50 [1]: 17.6 nM
IC50 (U-87 MG cells): 54 nM

Nc1ncnc2c1ccn2[C@@H]1O[C@H]([C@@H]2OCCc3c2ccc(Cl)c3F)[C@@H](O)[C@H]1O [Example 84, (2R,3R,4S,5S)-2-(4-amino-7H-pyrrolo[2,3-d]pyrimidin-7-yl)-5-((R)-6-chloro-5-fluoroisochroman-1-yl)tetrahydrofuran-3,4-diol]
IC50 (PRMT5/MEP50 complex): 4.4 nM
IC50 [1]: 27.6 nM
IC50 (U-87 MG cells): 94 nM

Cc1ncnc2c1ccn2[C@@H]1O[C@H]([C@@H]2OCCc3c2ccc(Cl)c3F)[C@@H](O)[C@H]1O [Example 83, (2S,3S,4R,5R)-2-((R)-6-chloro-5-fluoroisochroman-1-yl)-5-(4-methyl-7H-pyrrolo[2,3-d]pyrimidin-7-yl)tetrahydrofuran-3,4-diol]
IC50 (PRMT5/MEP50 complex): 13.2 nM
IC50 [1]: 199 nM
IC50 (U-87 MG cells): 377 nM

Cc1ncnc2c1ccn2[C@@H]1O[C@H]([C@@H]2OCCc3cc(Cl)sc32)[C@@H](O)[C@H]1O [Example 89, (2S,3S,4R,5R)-2-((S)-2-chloro-4,7-dihydro-5H-thieno[2,3-c]pyran-7-yl)-5-(4-methyl-7H-pyrrolo[2,3-d]pyrimidin-7-yl)tetrahydrofuran-3,4-diol]
IC50 (PRMT5/MEP50 complex): 15.7 nM
IC50 [1]: 84.4 nM
IC50 (U-87 MG cells): 179 nM

Nc1ncnc2c1ccn2[C@@H]1O[C@H]([C@@H]2OCCc3cc(Cl)sc32)[C@@H](O)[C@H]1O [Example 90, (2R,3R,4S,5S)-2-(4-amino-7H-pyrrolo[2,3-d]pyrimidin-7-yl)-5-((S)-2-chloro-4,7-dihydro-5H-thieno[2,3-c]pyran-7-yl)tetrahydrofuran-3,4-diol]
IC50 (PRMT5/MEP50 complex): 2.2 nM
IC50 [1]: 11.4 nM
IC50 (U-87 MG cells): 33.3 nM

Cc1ncnc2c1ccn2[C@@H]1O[C@H]([C@@H]2OCCc3cc(Cl)c(Cl)cc32)[C@@H](O)[C@H]1O [Example 87, (2S,3S,4R,5R)-2-((R)-6,7-dichloroisochroman-1-yl)-5-(4-methyl-7H-pyrrolo[2,3-d]pyrimidin-7-yl)tetrahydrofuran-3,4-diol]
IC50 (PRMT5/MEP50 complex): 7.7 nM
IC50 [1]: 120 nM
IC50 (U-87 MG cells): 509 nM

Cc1ncnc2c1ccn2[C@@H]1O[C@H]([C@@H]2OCCc3cc(F)c(F)cc32)[C@@H](O)[C@H]1O [Example 74, (2S,3S,4R,5R)-2-((R)-6,7-difluoroisochroman-1-yl)-5-(4-methyl-7H-pyrrolo[2,3-d]pyrimidin-7-yl)tetrahydrofuran-3,4-diol]
IC50 (PRMT5/MEP50 complex): 7.28 nM
IC50 (U-87 MG cells): 66 nM

Cc1ncnc2c1c(F)cn2[C@@H]1O[C@H]([C@@H]2OCCc3cc(Cl)ccc32)[C@@H](O)[C@H]1O [Example 85, (2S,3S,4R,5R)-2-((R)-6-chloroisochroman-1-yl)-5-(5-fluoro-4-methyl-7H-pyrrolo[2,3-d]pyrimidin-7-yl)tetrahydrofuran-3,4-diol]
IC50 (PRMT5/MEP50 complex): 14.7 nM
IC50 [1]: 173 nM
IC50 (U-87 MG cells): 304 nM

Nc1ncnc2c1ccn2[C@@H]1C[C@H]([C@@H]2OCc3cc(Cl)ccc32)[C@@H](O)[C@H]1O [Example 2B, (1R,2S,3R,5S)-3-(4-amino-7H-pyrrolo[2,3-d]pyrimidin-7-yl)-5-((S)-5-chloro-1,3-dihydroisobenzofuran-1-yl)cyclopentane-1,2-diol]
IC50 (PRMT5/MEP50 complex): 31 nM
IC50 [1]: 563 nM
IC50 (U-87 MG cells): > 1000 nM

Nc1ncnc2c1ccn2[C@@H]1O[C@H]([C@@H]2OCCc3c(Cl)cccc32)[C@@H](O)[C@H]1O [Example 72, (2R,3R,4S,5S)-2-(4-amino-7H-pyrrolo[2,3-d]pyrimidin-7-yl)-5-((R)-5-chloroisochroman-1-yl)tetrahydrofuran-3,4-diol]
IC50 (PRMT5/MEP50 complex): 2.98 nM
IC50 (U-87 MG cells): 78 nM
